Measurements as given in US20260297085A1, “1 H-PYRROLO[2,3-B]PYRIDIN-4-YL]-2-OXOPYRROLIDINE-3-CARBONITRILE DERIVATIVES AS TYROSINE KINASE 2 (TYK2) INHIBITORS FOR THE TREATMENT OF INFLAMMATORY DISEASES” (BIOGEN MA INC., priority 2023, published 2026).
Structures can show the parent of a compound that is named as a salt.

Assays:
[1] = molecular target: T1, human JAK3 kinase domain (JH1) (Homo sapiens, UniProt P52333); assay: JH1 biochemical assay for JAK3 (ADP-Glo kinase assay, recombinant JH1 catalytic domain, JAK3-974 peptide, 4 μM ATP)
T1 construct: recombinantly generated catalytic kinase (also known as JH1) domain of human JAK1, JAK2, JAK3 and TYK2
Method in brief: (§1)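 Reactions ran 100 min with 50 μM substrate peptide (JAK3-342 for JAK1 at 4 nM enzyme; JAK3-974 for JAK2 0.2 nM, JAK3 0.3 nM, TYK2 2 nM), and ADP formed was read by ADP-Glo luminescence. Eleven-point 3-fold series from 10 or 1 μM; IC50 fitted by 4-parameter logistic model.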

[2] = molecular target: T2, human JAK1 kinase domain (JH1) (Homo sapiens, UniProt P23458); assay: JH1 biochemical assay for JAK1 (ADP-Glo kinase assay, recombinant JH1 catalytic domain, JAK3-342 peptide, 35 μM ATP)
T2 construct: recombinantly generated catalytic kinase (also known as JH1) domain of human JAK1, JAK2, JAK3 and TYK2
Method in brief: as §1

[3] = molecular target: T3, human JAK2 kinase domain (JH1) (Homo sapiens, UniProt O60674); assay: JH1 biochemical assay for JAK2 (ADP-Glo kinase assay, recombinant JH1 catalytic domain, JAK3-974 peptide, 15 μM ATP)
T3 construct: recombinantly generated catalytic kinase (also known as JH1) domain of human JAK1, JAK2, JAK3 and TYK2
Method in brief: as §1

[4] = molecular target: JAK1 kinase activity on STAT3 in TF1 cells (Homo sapiens, UniProt P23458); assay: pSTAT3 cell assay (MSD; TF1 cells, 30 ng/mL IL-6 stimulation); assay type: cell-based; conditions: 30 ng/mL IL-6, 15 minutes
Method in brief: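 Serum-starved TF1 cells were pretreated with compound for 1 hour (10-point, four-fold dilutions from 10 μM), then stimulated with IL-6 for 15 minutes. Lysates were assayed for pSTAT3 by MSD with anti-STAT3 antibodies; IC50 came from a 4-parameter logistic fit of normalized percent activity.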

[5] = molecular target: T4, human TYK2 kinase domain (JH1) (Homo sapiens, UniProt P29597); assay: JH1 biochemical assay for TYK2 (ADP-Glo kinase assay, recombinant JH1 catalytic domain, JAK3-974 peptide, 10 μM ATP)
T4 construct: recombinantly generated catalytic kinase (also known as JH1) domain of human JAK1, JAK2, JAK3 and TYK2
T4 sequence (P29597 897-1176 limits assumed): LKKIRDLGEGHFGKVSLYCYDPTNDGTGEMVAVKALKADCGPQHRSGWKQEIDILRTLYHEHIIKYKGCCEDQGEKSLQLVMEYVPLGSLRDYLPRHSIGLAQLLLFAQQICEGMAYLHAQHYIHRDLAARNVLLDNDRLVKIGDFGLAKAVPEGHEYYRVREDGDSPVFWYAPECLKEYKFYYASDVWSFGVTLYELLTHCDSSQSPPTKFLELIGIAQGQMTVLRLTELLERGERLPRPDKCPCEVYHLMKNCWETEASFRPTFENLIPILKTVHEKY
Method in brief: as §1

[6] = molecular target: Tyk2 kinase activity on STAT4 in NK92 cells (Homo sapiens, UniProt P29597); assay: pSTAT4 cell assay (MSD; NK92 cells, 30 ng/mL IL2 stimulation); assay type: cell-based; conditions: 30 ng/mL IL2, 15 minutes
Method in brief: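 IC50 values derive from 4-parameter logistic fits of normalized percent activity against log compound concentration. Phospho-STAT was measured by MSD with anti-STAT4 antibodies after 15 min of 30 ng/mL IL2 in serum-starved NK92 cells pretreated 1 hr with compound.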

[7] = molecular target: JAK2 kinase activity on STAT5 in TF1 cells (Homo sapiens, UniProt O60674); assay: pSTAT5 cell assay (MSD; TF1 cells, 30 ng/mL IL-3 stimulation); assay type: cell-based; conditions: 30 ng/mL IL-3, 15 minutes
Method in brief: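 Serum-starved TF1 cells with native JAK2/STAT5 were pretreated 1 h with compound (10-point four-fold dilutions from 10 μM), then stimulated 15 min with 30 ng/mL IL-3. pSTAT5 in lysates quantified by MSD immunoassay; normalized percent activity fitted to a 4-parameter logistic curve for IC50.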

JAK2 kinase activity on STAT5 in TF1 cells, sequence (O60674 whole entry): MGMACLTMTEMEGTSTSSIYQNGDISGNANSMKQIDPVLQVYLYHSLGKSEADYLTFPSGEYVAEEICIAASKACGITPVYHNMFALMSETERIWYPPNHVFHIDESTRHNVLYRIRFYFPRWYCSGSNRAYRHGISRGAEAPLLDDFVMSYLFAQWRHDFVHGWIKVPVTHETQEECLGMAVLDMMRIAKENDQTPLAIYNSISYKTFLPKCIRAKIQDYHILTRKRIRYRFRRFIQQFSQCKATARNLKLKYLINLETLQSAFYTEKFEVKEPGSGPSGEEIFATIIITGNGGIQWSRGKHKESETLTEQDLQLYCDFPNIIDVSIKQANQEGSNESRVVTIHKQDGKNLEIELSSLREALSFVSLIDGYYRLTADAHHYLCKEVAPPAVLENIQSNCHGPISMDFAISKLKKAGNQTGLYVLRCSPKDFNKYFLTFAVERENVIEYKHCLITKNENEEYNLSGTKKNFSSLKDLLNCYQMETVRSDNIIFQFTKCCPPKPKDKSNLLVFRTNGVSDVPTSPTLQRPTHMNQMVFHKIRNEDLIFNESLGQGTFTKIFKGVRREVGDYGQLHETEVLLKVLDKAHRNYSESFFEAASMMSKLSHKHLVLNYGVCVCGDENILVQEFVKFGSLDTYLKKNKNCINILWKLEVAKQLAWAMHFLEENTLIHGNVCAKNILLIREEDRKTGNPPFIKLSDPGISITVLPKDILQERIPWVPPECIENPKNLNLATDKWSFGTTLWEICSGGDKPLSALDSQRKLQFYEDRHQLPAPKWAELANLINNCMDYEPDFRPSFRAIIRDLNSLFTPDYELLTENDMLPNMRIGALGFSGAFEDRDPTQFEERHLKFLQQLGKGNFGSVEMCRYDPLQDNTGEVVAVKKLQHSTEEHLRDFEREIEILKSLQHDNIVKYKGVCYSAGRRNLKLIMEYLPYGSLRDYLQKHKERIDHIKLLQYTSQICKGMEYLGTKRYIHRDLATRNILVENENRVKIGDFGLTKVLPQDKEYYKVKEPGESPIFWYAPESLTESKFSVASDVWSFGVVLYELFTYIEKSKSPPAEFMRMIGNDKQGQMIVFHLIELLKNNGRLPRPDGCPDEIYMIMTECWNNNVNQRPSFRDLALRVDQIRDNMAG
T2 sequence (P23458 875-1153 limits assumed): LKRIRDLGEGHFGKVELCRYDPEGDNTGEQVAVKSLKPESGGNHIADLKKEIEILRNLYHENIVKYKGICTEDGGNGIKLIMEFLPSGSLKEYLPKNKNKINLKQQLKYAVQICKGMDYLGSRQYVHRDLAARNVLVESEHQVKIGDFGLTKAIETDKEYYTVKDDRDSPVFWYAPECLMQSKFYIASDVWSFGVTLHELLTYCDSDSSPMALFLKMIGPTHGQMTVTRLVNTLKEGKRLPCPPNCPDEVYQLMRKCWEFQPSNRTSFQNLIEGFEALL
Tyk2 kinase activity on STAT4 in NK92 cells, sequence (P29597 whole entry): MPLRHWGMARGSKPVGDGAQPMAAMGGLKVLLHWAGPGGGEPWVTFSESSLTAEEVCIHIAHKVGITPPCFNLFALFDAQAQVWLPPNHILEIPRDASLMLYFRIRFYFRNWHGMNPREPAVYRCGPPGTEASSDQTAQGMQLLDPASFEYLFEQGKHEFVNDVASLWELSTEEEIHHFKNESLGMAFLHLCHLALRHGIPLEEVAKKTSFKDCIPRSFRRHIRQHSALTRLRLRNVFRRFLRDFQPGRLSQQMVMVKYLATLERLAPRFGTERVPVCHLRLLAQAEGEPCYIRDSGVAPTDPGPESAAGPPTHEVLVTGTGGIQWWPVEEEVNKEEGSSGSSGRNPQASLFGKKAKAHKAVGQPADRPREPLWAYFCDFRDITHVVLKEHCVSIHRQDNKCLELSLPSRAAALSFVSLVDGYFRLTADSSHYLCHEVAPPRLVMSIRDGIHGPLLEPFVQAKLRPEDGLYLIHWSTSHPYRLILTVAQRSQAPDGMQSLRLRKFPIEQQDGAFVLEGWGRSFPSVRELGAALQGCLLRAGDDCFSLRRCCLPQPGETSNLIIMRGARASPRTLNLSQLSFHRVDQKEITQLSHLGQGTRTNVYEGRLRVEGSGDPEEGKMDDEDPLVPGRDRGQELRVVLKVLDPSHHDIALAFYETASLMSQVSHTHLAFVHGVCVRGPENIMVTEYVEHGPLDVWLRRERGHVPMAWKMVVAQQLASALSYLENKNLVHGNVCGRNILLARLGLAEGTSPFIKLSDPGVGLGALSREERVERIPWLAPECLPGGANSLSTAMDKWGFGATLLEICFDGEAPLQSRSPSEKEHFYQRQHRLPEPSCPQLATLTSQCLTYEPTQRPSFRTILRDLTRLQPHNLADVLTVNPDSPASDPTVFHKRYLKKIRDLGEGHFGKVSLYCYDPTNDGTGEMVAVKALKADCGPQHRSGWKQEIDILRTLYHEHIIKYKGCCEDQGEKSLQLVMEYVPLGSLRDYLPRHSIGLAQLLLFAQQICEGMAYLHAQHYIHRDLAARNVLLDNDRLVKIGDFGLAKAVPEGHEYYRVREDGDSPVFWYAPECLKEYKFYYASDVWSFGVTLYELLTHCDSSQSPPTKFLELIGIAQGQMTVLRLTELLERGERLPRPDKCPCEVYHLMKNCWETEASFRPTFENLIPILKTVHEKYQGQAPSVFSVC
T3 sequence (O60674 849-1124 limits assumed): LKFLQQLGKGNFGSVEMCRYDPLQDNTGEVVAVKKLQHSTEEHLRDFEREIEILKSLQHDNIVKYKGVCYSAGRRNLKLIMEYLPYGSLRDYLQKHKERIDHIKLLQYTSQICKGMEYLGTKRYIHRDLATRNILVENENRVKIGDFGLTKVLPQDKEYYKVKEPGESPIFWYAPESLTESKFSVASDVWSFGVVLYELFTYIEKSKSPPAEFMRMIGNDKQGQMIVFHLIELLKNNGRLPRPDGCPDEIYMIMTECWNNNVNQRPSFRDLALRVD
JAK1 kinase activity on STAT3 in TF1 cells, sequence (P23458 whole entry): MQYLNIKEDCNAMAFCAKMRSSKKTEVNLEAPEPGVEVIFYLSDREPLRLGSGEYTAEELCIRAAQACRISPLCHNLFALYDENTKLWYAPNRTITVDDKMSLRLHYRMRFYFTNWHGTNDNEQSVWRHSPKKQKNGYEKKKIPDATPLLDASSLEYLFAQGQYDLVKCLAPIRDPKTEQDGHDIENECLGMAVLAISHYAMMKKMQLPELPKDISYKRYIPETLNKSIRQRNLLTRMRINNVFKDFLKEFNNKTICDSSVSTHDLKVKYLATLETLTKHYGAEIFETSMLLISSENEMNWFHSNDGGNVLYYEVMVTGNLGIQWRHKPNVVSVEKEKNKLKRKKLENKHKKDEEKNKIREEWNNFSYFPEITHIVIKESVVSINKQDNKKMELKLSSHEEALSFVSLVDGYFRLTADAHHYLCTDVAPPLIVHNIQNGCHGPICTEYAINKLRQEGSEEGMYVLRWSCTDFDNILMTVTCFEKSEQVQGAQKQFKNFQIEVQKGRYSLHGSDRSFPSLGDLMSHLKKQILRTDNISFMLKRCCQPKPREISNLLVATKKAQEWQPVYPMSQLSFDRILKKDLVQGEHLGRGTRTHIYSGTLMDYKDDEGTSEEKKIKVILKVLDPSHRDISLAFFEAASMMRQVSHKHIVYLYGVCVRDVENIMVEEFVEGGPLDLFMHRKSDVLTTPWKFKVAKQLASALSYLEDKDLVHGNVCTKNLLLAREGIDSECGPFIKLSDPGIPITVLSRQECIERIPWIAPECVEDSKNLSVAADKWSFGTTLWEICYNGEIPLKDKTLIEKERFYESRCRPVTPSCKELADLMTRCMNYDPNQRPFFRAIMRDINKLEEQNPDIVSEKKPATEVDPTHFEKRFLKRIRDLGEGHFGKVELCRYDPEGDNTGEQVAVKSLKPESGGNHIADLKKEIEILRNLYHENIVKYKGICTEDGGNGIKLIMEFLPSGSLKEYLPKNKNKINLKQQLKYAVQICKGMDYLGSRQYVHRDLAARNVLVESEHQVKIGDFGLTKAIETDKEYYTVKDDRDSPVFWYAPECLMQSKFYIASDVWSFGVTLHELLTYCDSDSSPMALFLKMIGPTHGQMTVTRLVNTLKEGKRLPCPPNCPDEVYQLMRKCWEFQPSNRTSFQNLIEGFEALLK
T1 sequence (P52333 822-1111 limits assumed): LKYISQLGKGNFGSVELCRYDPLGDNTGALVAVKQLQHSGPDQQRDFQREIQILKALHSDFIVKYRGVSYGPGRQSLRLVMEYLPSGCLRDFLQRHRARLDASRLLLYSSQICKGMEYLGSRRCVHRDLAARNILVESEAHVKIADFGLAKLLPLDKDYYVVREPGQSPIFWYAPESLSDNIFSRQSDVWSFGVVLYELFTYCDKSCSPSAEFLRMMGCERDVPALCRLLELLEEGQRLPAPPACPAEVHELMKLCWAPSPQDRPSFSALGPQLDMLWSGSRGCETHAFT

| Structure (SMILES) | IC50 ([1]; JAK3 JH1, ADP-Glo) [µM] | IC50 ([2]; JAK1 JH1, ADP-Glo) [µM] | IC50 ([3]; JAK2 JH1, ADP-Glo) [µM] | IC50 [4] [µM] | IC50 ([5]; TYK2 JH1, ADP-Glo) [µM] | IC50 [6] [µM] | IC50 [7] [µM] | IC50 ([1]; JH1 kinase domain, ADP-Glo) [µM] | IC50 ([2]; JH1 kinase domain, ADP-Glo) [µM] | IC50 ([3]; JH1 kinase domain, ADP-Glo) [µM] | IC50 ([5]; JH1 kinase domain, ADP-Glo) [µM] |
| --- | --- | --- | --- | --- | --- | --- | --- | --- | --- | --- | --- |
| C[C@@H]1CN(c2nc(-c3ccn(C)c(=O)c3)cn3nccc23)C(=O)[C@]1(C#N)C1CC1 [Example 261, (3R,4S)-3-cyclopropyl-4-methyl-1-(6-(1-methyl-2-oxo-1,2-dihydropyridin-4-yl)pyrazolo[1,5-a]pyrazin-4-yl)-2-oxopyrrolidine-3-carbonitrile trifluoroacetate] | < 0.1 | 0.1 to 1 | 0.1 to 1 | 1 to 5 | < 0.005 | > 0.1 | 1 to 5 | – | – | – | – |
| C[C@@H]1CN(c2ccnn3cc(-c4ccc(C(=O)N(C)C)cn4)cc23)C(=O)[C@]1(C#N)C1CC1 [Example 124, 6-(4-((3R,4S)-3-cyano-3-cyclopropyl-4-methyl-2-oxopyrrolidin-1-yl)pyrrolo[1,2-b]pyridazin-6-yl)-N,N-dimethylnicotinamide trifluoroacetate] | – | – | – | 5 to 10 | – | > 0.1 | 5 to 10 | 0.1 to 1 | 0.1 to 1 | 0.1 to 1 | 0.005 to 0.02 |
| COc1ncccc1-c1cc2c(N3C[C@@H](C)[C@@](C#N)(C4CC4)C3=O)ccnn2c1 [Example 96, (3R,4S)-3-cyclopropyl-1-(6-(2-methoxypyridin-3-yl)pyrrolo[1,2-b]pyridazin-4-yl)-4-methyl-2-oxopyrrolidine-3-carbonitrile] | – | – | – | > 10 | – | > 0.1 | > 10 | 1 to 5 | 1 to 5 | 1 to 5 | 0.005 to 0.02 |
| C[C@@H]1CN(c2ccnn3cc(-c4cnn(C5(CC#N)CC5)c4)cc23)C(=O)[C@]1(C#N)C1CC1 [Example 323] | < 0.1 | < 0.1 | < 0.1 | 1 to 5 | < 0.005 | 0.05 to 0.1 | 1 to 5 | – | – | – | – |
| CNC(=O)c1ccc(-c2cn3nccc3c(N3C[C@@H](C)[C@@](C#N)(C4CC4)C3=O)n2)cn1 [Example 227, 5-(4-((3R,4S)-3-cyano-3-cyclopropyl-4-methyl-2-oxopyrrolidin-1-yl)pyrazolo[1,5-a]pyrazin-6-yl)-N-methylpicolinamide trifluoroacetate] | < 0.1 | < 0.1 | 0.1 to 1 | 0.1 to 1 | < 0.005 | > 0.1 | 1 to 5 | – | – | – | – |
| C[C@@H]1CN(c2cc(-c3cnn(C)c3)cn3nccc23)C(=O)[C@]1(C#N)C1CC1 [Example 271, (3R,4S)-3-cyclopropyl-4-methyl-1-(6-(1-methyl-1H-pyrazol-4-yl)pyrazolo[1,5-a]pyridin-4-yl)-2-oxopyrrolidine-3-carbonitrile] | 0.1 to 1 | 0.1 to 1 | 1 to 5 | > 10 | 0.005 to 0.02 | > 0.1 | > 10 | – | – | – | – |
| C[C@@H]1CN(c2ccnn3cc(-c4cc5ccccn5n4)cc23)C(=O)[C@]1(C#N)C1CC1 [Example 104, (3R,4S)-3-cyclopropyl-4-methyl-2-oxo-1-(6-(pyrazolo[1,5-a]pyridin-2-yl)pyrrolo[1,2-b]pyridazin-4-yl)pyrrolidine-3-carbonitrile trifluoroacetate] | – | – | – | 1 to 5 | – | > 0.1 | 5 to 10 | 0.1 to 1 | 0.1 to 1 | 0.1 to 1 | < 0.005 |
| C[C@@H]1CN(c2ccnn3cc(-c4cnn(C5CC5(F)F)c4)cc23)C(=O)[C@]1(C#N)C1CC1 (mixture of isomers) [Example 154, (3R,4S)-3-cyclopropyl-1-(6-(1-(2,2-difluorocyclopropyl)-1H-pyrazol-4-yl)pyrrolo[1,2-b]pyridazin-4-yl)-4-methyl-2-oxopyrrolidine-3-carbonitrile] | – | – | – | 1 to 5 | – | 0.005 to 0.02 | 1 to 5 | 0.1 to 1 | < 0.1 | 0.1 to 1 | < 0.005 |
| C[C@@H]1CN(c2ccnn3cc(-c4ccc(F)nc4)cc23)C(=O)[C@]1(C#N)C1CC1 [Example 81, (3R,4S)-3-cyclopropyl-1-(6-(6-fluoropyridin-3-yl)pyrrolo[1,2-b]pyridazin-4-yl)-4-methyl-2-oxopyrrolidine-3-carbonitrile] | – | – | – | 5 to 10 | – | > 0.1 | > 10 | 0.1 to 1 | 0.1 to 1 | 0.1 to 1 | 0.005 to 0.02 |
